Holding throughout (type): physicochemical
A short description of one data set: DSC and TGA tests. Particulars: onset temperature. As to the method: 6. Differential Scanning Calorimetry-Thermogravimetric Analysis (DSC-TGA)
Detection instrument: NETZSCH STA 449F3
Temperature range: 20° C.-350° C.;
Heating rate: 10.0 (K/min);
7. Differential Scanning Calorimetry (DSC)
Detection instrument: NETZSCH DSC 214 Polyma
Temperature range: 20° C.-250° C.;
Heating rate: 5.0 (K/min);
8. Thermogravimetric Analysis (TGA)
Detection instrument: METTLER and SDT Q600
The salts obtained in Examples 1 and 3-17 and the compound represented by Formula 1 were subjected to the DSC and TGA tests in media, and the test results were shown in the following table: […]

Data set [1] in a line: Solubility test (UV spectrophotometer, saturated solutions shaken 24 hours). The following applies: 25° C.; for Solubility, Water medium pH = 1.2: pH=1.2 hydrochloric acid solution; for Solubility, Water medium pH = 4.5: pH=4.5 phosphate buffer solution; for Solubility, Water medium pH = 6.8: pH=6.8 phosphate buffer solution; for Solubility, Water medium: water (purified water). As to the method: Detection instrument: Ultraviolet spectrophotometer/Evolution 300
The following solutions with pH=1.2, pH=4.5, and pH=6.8 and water were used as the solvent, and the solvent preparation process was as follows:
(1) pH=1.2 hydrochloric acid solution: To 7.65 mL of hydrochloric acid was added 1000 mL of water, and the mixture was shaken uniformly to obtain the target solution.
(2) pH=4.5 phosphate buffer solution: 6.8 g of potassium dihydrogen phosphate was taken and diluted with water to 1000 mL, and the mixture was shaken uniformly to obtain the target solution.
(2) pH=6.8 phosphate buffer solution: 6.8 g of potassium dihydrogen phosphate and 0.896 g of sodium hydroxide were taken and diluted with water to 1000 mL, and the mixture was shaken uniformly to obtain the target solution.
(4) Water: purified water
Test tubes with stopper were taken, and 10 mL of dissolution media at various pH values were precisely added to the test tubes respectively, and excessive stock drugs were added until supersaturated solutions were formed. The adding amounts were recorded. The solutions were shaken uniformly, sealed with stoppers, and shaken for 24 hours in a shaker. 2 mL of solutions were taken out at different time points respectively, and centrifuged. The resulting supernatants were taken, filtered, and the subsequent filtrates were taken for later use.
The above-mentioned saturated solutions in different solvents were taken, and solvents were added to dilute the solutions to certain volumes. The absorbances were measured at a wavelength of 287 nm.
Preparation of a solution of the reference substance: an appropriate amount of the compound represented by Formula 1 was taken as the reference substance, and precisely weighed. A solvent was added to dissolve and dilute the reference compound to produce a solution containing about 10 μg of the compound represented by Formula 1 per 1 mL. The absorbance was measured at a wavelength of 287 nm to calculate the solubility.
The salts obtained in Examples 1 and 3-17 and the compound represented by Formula 1 were subjected to the solubility test in media and the test results were shown in the following table: […]

A short description of the next data set: Hygroscopicity test. The following applies: 25±1° C., relative humidity 80%±2% (DVS, 80% RH). The protocol: Detection instrument: XPE105DR
(1) A dry stoppered glass weighing bottle was taken, placed in a suitable constant-temperature desiccator at 25° C. 1° C. (with a saturated solution of ammonium chloride or ammonium sulfate in the lower part) or an artificial climate box (with the set temperature of 25° C.±1° C. and the relative humidity of 80%±2%) on the day before the test, and precisely weighed and recorded as the weight (m1).
(2) An appropriate amount of the test sample was taken and spread in the above-mentioned weighing bottle. The thickness of the test sample was generally about 1 mm, and the bottle was precisely weighed and recorded as the weight (m2).
(3) The stopper was removed to open the weighing bottle, and the opened weighing bottle and the stopper were placed under the above-mentioned constant temperature and humidity conditions for 24 hours.
(4) The opened weighing bottle was stoppered, precisely weighed, and recorded as the weight (m3).
Percentage increase in mass=(m3−m2)/(m2−m1)×100%
(5) The description of hygroscopicity characteristics and the definition for the weight gain due to hygroscopicity:
Deliquescence: Sufficient water was absorbed to form a liquid.
Very hygroscopic: the weight gain due to hygroscopicity was not less than 15%.
Hygroscopic: the weight gain due to hygroscopicity was less than 15% but not less than 2%.
Slightly hygroscopic: the weight gain due to hygroscopicity was less than 2% but not less than 0.2%.
Not or nearly not hygroscopic: the weight gain due to hygroscopicity was less than 0.2%.
Appropriate amounts of the salt samples obtained from Examples 1 and 3-17 were subjected to the hygroscopicity test at a temperature of 25±1° C. under a relative humidity of 80%±2%, and the results were as follows: […]

Data set [2] can be described thus: Accelerated stability test. The protocol: Appropriate amounts of the salt samples obtained from Examples 1 and 3-17 were placed at a temperature of 25±2° C. under 0%±5% RH in an open environment for 10 days and at a temperature of 40±2° C. under 75%±5% RH in an open environment for 10 days respectively to perform the accelerated tests, and the results were as follows: […]

Setting [3] is: Placed at 25 ± 2° C. under 0% ± 5% RH in an open environment for 10 days.
Setting [4] is: Placed at 40 ± 2° C. under 75% ± 5% RH in an open environment for 10 days.

Each structure is given as a SMILES string. ≈ marks a conversion by molar mass, not a printed value.

As for `CC(C)n1c(Nc2cccnc2)nc2cnc(Nc3ccc(N4CCN(C)CC4)cc3)nc21` [Example 3], in “DSC and TGA tests”, the “TGA: starting to lose the acid” value was ~120 °C (see FIG. 21) and the “TGA: starting to lose the water of crystallization” value (“TGA: starting to lose the water” for short) is given as “crystallization at about 40° C.;”. In data set [1], the “Solubility, Water medium pH = 1.2” value amounted to 360.00 mg/mL; the “Solubility, Water medium pH = 4.5” value is on record as 207.53 mg/mL; the “Solubility, Water medium pH = 6.8” value came out at 153.30 mg/mL; the “Solubility, Water medium” value was 212.73 mg/mL (≈ 480 mM). Also, in “Hygroscopicity test”, the Hygroscopicity entry is on record as “Hygroscopic (the weight gain due to hygroscopicity was less than 15% but not less than 2%.)” and the “Weight gain due to hygroscopicity” value worked out at 5.86%.
As to `CC(C)n1c(Nc2cccnc2)nc2cnc(Nc3ccc(N4CCN(C)CC4)cc3)nc21` [Example 8], in “DSC and TGA tests”, the “TGA: starting to lose the acid” value was ~180 °C (see FIG. 28) and the “TGA: starting to lose the water” value is recorded as “crystallization at about 40° C.;”. In data set [1], the “Solubility, Water medium pH = 1.2” value is recorded as 36.41 mg/mL; the “Solubility, Water medium pH = 4.5” value was determined as 14.36 mg/mL; the “Solubility, Water medium pH = 6.8” value amounted to 10.46 mg/mL; the “Solubility, Water medium” value is recorded as 9.74 mg/mL (≈ 22 mM). Moreover, in the data set “Hygroscopicity test”, the Hygroscopicity result is reported as “Slightly hygroscopic (the weight gain due to hygroscopicity was less than 2% but not less than 0.2%.)” and the “Weight gain due to hygroscopicity” value is recorded as 1.43%.
Take `CC(C)n1c(Nc2cccnc2)nc2cnc(Nc3ccc(N4CCN(C)CC4)cc3)nc21` [Example 14]: in the data set “DSC and TGA tests”, the “TGA: starting to lose the acid” value was ~80 °C (see FIG. 37) and the “TGA: starting to lose the water” value is on record as “crystallization at about 40° C.;”. In data set [1], the “Solubility, Water medium pH = 1.2” value is 41.47 mg/mL; the “Solubility, Water medium pH = 4.5” value amounted to 0.72 mg/mL; the “Solubility, Water medium pH = 6.8” value worked out at 0.03 mg/mL; the “Solubility, Water medium” value is 0.04 mg/mL (≈ 0.0902 mM). In addition, in the data set “Hygroscopicity test”, the Hygroscopicity entry was “Slightly hygroscopic (the weight gain due to hygroscopicity was less than 2% but not less than 0.2%.)” and the “Weight gain due to hygroscopicity” value was found to be 1.59%. In data set [2] (setting [3]), the Appearance entry was “Off-white solid”. Further, in data set [2] (setting [4]), the Appearance result is “Off-white solid”.
Regarding `CC(C)n1c(Nc2cccnc2)nc2cnc(Nc3ccc(N4CCN(C)CC4)cc3)nc21` [Example 12], in the data set “DSC and TGA tests”, the “TGA: starting to lose the acid” value was ~140 °C (see FIG. 33) and the “TGA: starting to lose the water” value was “crystallization at about 40° C.;”. Further, in data set [1], the “Solubility, Water medium pH = 1.2” value was found to be 42.39 mg/mL; the “Solubility, Water medium pH = 4.5” value worked out at 2.70 mg/mL; the “Solubility, Water medium pH = 6.8” value amounted to 0.14 mg/mL; the “Solubility, Water medium” value amounted to 3.09 mg/mL (≈ 6.97 mM). Besides, the “Weight gain due to hygroscopicity” value in “Hygroscopicity test” is listed as 0.11%.
On to `CC(C)n1c(Nc2cccnc2)nc2cnc(Nc3ccc(N4CCN(C)CC4)cc3)nc21` [Example 16], for which, in the data set “DSC and TGA tests”, the “TGA: starting to lose the acid” value is ~240 °C (See FIG. 40) and the “TGA: starting to lose the water” value is on record as “crystallization at about 40° C.;”. Further, in data set [1], the “Solubility, Water medium pH = 1.2” value is 129.50 mg/mL; the “Solubility, Water medium pH = 4.5” value came to 90.03 mg/mL; the “Solubility, Water medium pH = 6.8” value amounted to 90.09 mg/mL; the “Solubility, Water medium” value was determined as 76.59 mg/mL (≈ 173 mM). Further, in the data set “Hygroscopicity test”, the Hygroscopicity result is “Hygroscopic (the weight gain due to hygroscopicity was less than 15% but not less than 2%.)” and the “Weight gain due to hygroscopicity” value came out at 7.67%.
As to `CC(C)n1c(Nc2cccnc2)nc2cnc(Nc3ccc(N4CCN(C)CC4)cc3)nc21` [Example 6], in “DSC and TGA tests”, the “TGA: starting to lose the acid” value was ~170 °C (see FIG. 26) and the “TGA: starting to lose the water” value is “crystallization at about 40° C.;”. Moreover, in data set [1], the “Solubility, Water medium pH = 1.2” value is 54.70 mg/mL; the “Solubility, Water medium pH = 4.5” value stood at 14.59 mg/mL; the “Solubility, Water medium pH = 6.8” value is listed as 12.05 mg/mL; the “Solubility, Water medium” value came out at 9.68 mg/mL (≈ 21.8 mM). In addition, in “Hygroscopicity test”, the Hygroscopicity entry was “Slightly hygroscopic (the weight gain due to hygroscopicity was less than 2% but not less than 0.2%.)” and the “Weight gain due to hygroscopicity” value was 1.02%. For the same molecule, in data set [2] (setting [3]), the Appearance result was “Yellow solid”. Besides, in data set [2] (setting [4]), the Appearance entry was “Yellow solid”.
As for `CC(C)n1c(Nc2cccnc2)nc2cnc(Nc3ccc(N4CCN(C)CC4)cc3)nc21` [Example 17], in “DSC and TGA tests”, the “TGA: starting to lose the acid” value is ~210 °C (see FIG. 41) and the “TGA: starting to lose the water” value is given as “crystallization at about 40° C.;”. In data set [1], the “Solubility, Water medium pH = 1.2” value is reported as 33.29 mg/mL; the “Solubility, Water medium pH = 4.5” value amounted to 21.64 mg/mL; the “Solubility, Water medium pH = 6.8” value turned out to be 31.39 mg/mL; the “Solubility, Water medium” value turned out to be 16.51 mg/mL (≈ 37.2 mM). In the data set “Hygroscopicity test”, the Hygroscopicity result is “Slightly hygroscopic (the weight gain due to hygroscopicity was less than 2% but not less than 0.2%.)” and the “Weight gain due to hygroscopicity” value came to 1.34%.
Turning to `CC(C)n1c(Nc2cccnc2)nc2cnc(Nc3ccc(N4CCN(C)CC4)cc3)nc21` [Example 5], in “DSC and TGA tests”, the “TGA: starting to lose the acid” value is ~190 °C (see FIG. 25) and the “TGA: starting to lose the water” value is listed as “crystallization at about 40° C.;”. Besides, in data set [1], the “Solubility, Water medium pH = 1.2” value is above 1000 mg/mL; the “Solubility, Water medium pH = 4.5” value is above 1000 mg/mL; the “Solubility, Water medium pH = 6.8” value is listed as above 1000 mg/mL; the “Solubility, Water medium” value is given as above 1000 mg/mL. In “Hygroscopicity test”, the Hygroscopicity entry is reported as “Very hygroscopic (the weight gain due to hygroscopicity was not less than 15%.)” and the “Weight gain due to hygroscopicity” value was 19.62%. Besides, the Appearance result in data set [2] (setting [3]) is on record as “Liquid”. Moreover, the Appearance result in data set [2] (setting [4]) is “Liquid”.
`CC(C)n1c(Nc2cccnc2)nc2cnc(Nc3ccc(N4CCN(C)CC4)cc3)nc21` [Example 9]: in the data set “DSC and TGA tests”, the “TGA: starting to lose the acid” value was ~170 °C (see FIG. 29) and the “TGA: starting to lose the water” value is on record as “crystallization at about 40° C.;”. For the same molecule, in data set [1], the “Solubility, Water medium pH = 1.2” value is recorded as 44.51 mg/mL; the “Solubility, Water medium pH = 4.5” value is 15.17 mg/mL; the “Solubility, Water medium pH = 6.8” value is on record as 11.48 mg/mL; the “Solubility, Water medium” value was found to be 10.50 mg/mL (≈ 23.7 mM). Also, in “Hygroscopicity test”, the Hygroscopicity entry is “Slightly hygroscopic (the weight gain due to hygroscopicity was less than 2% but not less than 0.2%.)” and the “Weight gain due to hygroscopicity” value turned out to be 1.43%.
Take `CC(C)n1c(Nc2cccnc2)nc2cnc(Nc3ccc(N4CCN(C)CC4)cc3)nc21` [Example 13]: in “DSC and TGA tests”, the “TGA: starting to lose the acid” value was ~140 °C (see FIG. 35) and the “TGA: starting to lose the water” value is recorded as “crystallization at about 40° C.;”. In addition, in data set [1], the “Solubility, Water medium pH = 1.2” value is on record as 59.71 mg/mL; the “Solubility, Water medium pH = 4.5” value is recorded as 8.42 mg/mL; the “Solubility, Water medium pH = 6.8” value came out at 1.12 mg/mL; the “Solubility, Water medium” value worked out at 5.06 mg/mL (≈ 11.4 mM). Further, the “Weight gain due to hygroscopicity” value in the data set “Hygroscopicity test” is on record as 0.05%.
